Laboratory results: article PMC10794885 (RSC Advances, 2024)

Assay: Stability in simulated intestinal fluid
Type: physicochemical

A half-life of 7.97 h was found for `CC[C@H]1OC(=O)[C@H](C)[C@@H](O[C@H]2C[C@@](C)(OC)[C@@H](O)[C@H](C)O2)[C@H](C)[C@@H](O[C@@H]2O[C@H](C)C[C@H](N(C)C)[C@H]2O)[C@](C)(O)C[C@@H](C)C(=O)[C@H](C)[C@@H](O)[C@]1(C)O` [erythromycin] in this work.
